Laboratory results published in US20230255953A1, “USE OF ROLUPERIDONE IN PREVENTING RELAPSE IN SCHIZOPHRENIA PATIENTS” (Minerva Neurosciences, Inc., priority 2022, published 2023).

Legend:
[1] = tested on: dopaminergic (DA) receptors; settings: background statement; cited from earlier work
[2] = tested on: patients with negative symptoms of schizophrenia; experiment: Study #1 (MIN-101C03): Brief Negative Symptoms Scale (BNSS); format: in vivo, human; settings: Week 12 DB, ITT
Excerpt: As used herein, “BNSS” is the Brief Negative Symptom Scale. “BNSS” is 13-item instrument designed to measure negative symptoms, specifically: blunted affect, alogia, asociality, anhedonia, and avolition (Kirkpatrick, et al., “The Brief Negative Symptom Scale: Psychometric Properties,” Schizophr. Bull., 2011, 37(2), 300-5.).
Phase 2b Study #1 (also referred to herein as “MIN-101C03”) was a Phase 2b, double-blind (“DB”), placebo-controlled, randomized, multicenter 12-week study to evaluate the efficacy, safety, and tolerability of Roluperidone in patients ≥18 years to ≤60 years with negative symptoms of schizophrenia, followed by a 24-week open-label (“OL”) extension. The primary objective of the study was to evaluate the efficacy of Roluperidone compared to placebo in improving the negative symptoms of schizophrenia as measured by the change from Baseline in the PANSS negative factor score of the PSM (“PANSS PSM”) over 12 weeks of treatment.
The study consisted of a pretreatment screening period of up to 28 days (including washout), a 12-week, DB, placebo-controlled period, and a 24-week OL period. Eligible patients (who were symptomatically stable for at least 3 months and had scores of at least 20 on the PANSS negative subscale score) were randomized in a 1:1:1 ratio to receive oral Roluperidone (a modified-release, “MR”, formulation) 32 mg QD, Roluperidone 64 mg QD, or placebo for 12 weeks. […] During the 24-week, OL treatment extension period, patients who were initially randomized to Roluperidone 32 mg or 64 mg continued on the same dose, while patients who were initially randomized to placebo crossed over to Roluperidone 32 mg or 64 mg in a 1:1 ratio.

## 1H-Isoindol-1-one,2-[ [1-[2-(4-fluorophenyl)-2-oxoethyl]-4-piperidinyl]methyl]-2,3-dihydro-, hydrochloride, hydrate (1:1:2) [Roluperidone]
[1]
  Affinity: very low or no affinity
[2]; 32 mg QD
  Change from Baseline LS Mean: Brief Negative Symptoms Scale Total Score: −5.44
  Effect Size vs Placebo: Brief Negative Symptoms Scale Total Score: 0.33
[2]; 64 mg QD
  Change from Baseline LS Mean: Brief Negative Symptoms Scale Total Score: −6.94
  Effect Size vs Placebo: Brief Negative Symptoms Scale Total Score: 0.56
